Results: patent US20250066320A1, “Active Ingredients with Sialagogue and Tingling/Fizzy Effect, and Preparations Containing Same” (Symrise AG, priority 2021, published 2025)

Test: Sensory tasting of the active ingredients (mouth-watering and/or tingling effect) by a trained expert panel
Assay type: in vivo, human
Settings: for Sensory Rating (profile in words): 3 to 7 tasters; for Sensory Rating: intensity of mouth-watering and/or tingling/fizzing effect (figure in brackets): 50 ppm, scale of 1 (very weak) to 10 (very strong)
Procedure: The sensory tasting of the active ingredients according to the invention was carried out as follows: • (1) The active ingredients were each prepared in a 5% sugar solution or in an unflavored standard fondant mass. Fondant is the name for a soft, pasty sugar mass that is used to make various confectionery products. Fondant is made from water and sucrose as well as glucose syrup, invert sugar cream and/or sugar alcohols (e.g., sorbitol or mannitol). The mixture is boiled and then processed into a soft paste by kneading it vigorously and cooling it quickly. • (2) The concentration of the active ingredients was 25 or 50 ppm. • (3) The test samples were tested under practical conditions by a panel of experts with sensory training. For tasting, 3 to 7 tasters each rinsed their mouths with approx. 5 ml of the sugar solution and spat the solution out again. The mouth-watering and/or tingling effect was assessed on a scale of 1 (very weak) to 10 (very strong) and the profile evaluated.

[1] = 50 ppm in 5% sugar solution or unflavored fondant mass
[2] = 25 ppm in 5% sugar solution or unflavored fondant mass

| SMILES | Sensory Rating (profile in words) [1] | Sensory Rating: intensity of mouth-watering and/or tingling/fizzing effect (figure in brackets) | Sensory Rating (profile in words) [2] |
| --- | --- | --- | --- |
| COc1ccc(C(=O)N2CCN(CCCc3ccccc3)CC2)cc1OC [Compound 31, (3,4-Dimethoxy-phenyl)-[4-(3-phenyl-propyl)piperazin-1-yl]methanone] | tingling/ fizzing (5-6), and mouth-watering, fruity note, Honey flavor | tingling/ fizzing (5-6), and mouth-watering, fruity note, Honey flavor | – |
| COc1ccc(C(=O)N2CCCN(CCc3ccccc3)CC2)cc1OC [Compound 32, (3,4-Dimethoxy-phenyl)-[4-(2-phenyl-ethyl)-1,4-diazepan-1-yl]methanone] | very slightly tingling/ fizzing (1), slightly metallic taste | very slightly tingling/ fizzing (1), slightly metallic taste | – |
| COc1ccc(C(=O)N2CCN(Cc3ccccc3)CC2)cc1OC [Compound 33, (4-benzylpiperazin-1-yl)-(3,4-dimethoxy-phenyl)methanone] | very slightly tingling/ fizzing (1-2), slightly like marzipan | very slightly tingling/ fizzing (1-2), slightly like marzipan | – |
| COc1ccc(C(=O)N2CCN(CCCCc3ccccc3)CC2)cc1 [Compound 34, (4-Methoxy-phenyl)-[4-(4-phenyl-butyl)piperazin-1-yl]methanone] | strongly mouth-watering/ tingling/fizzing | 6 | tingling/ fizzing and mouth-watering effect, neutral taste |
| COc1ccc(C(=O)N2CCN(CCc3ccccc3)CC2)cc1 [Compound 35, (4-Methoxy-phenyl)-[4-(2-phenyl-ethyl)piperazin-1-yl]methanone] | slightly tingling/ fizzing (3) and mouth-watering, Acid taste, Honey note | 3 | slightly mouth-watering |
| COc1ccc(C(=O)N2CCN(CCC3CCCCC3)CC2)cc1 [Compound 36, [4-(2-cyclo-hexylethyl)piperazin-1-yl]-(4-methoxy-phenyl) methanone] | slightly tingling/fizzing (3), metallic taste | slightly tingling/fizzing (3), metallic taste | – |
| COc1ccc(C(=O)N2CCC(CCCc3ccccc3)CC2)cc1 [Compound 37, (4-Methoxy-phenyl)-[4-(3-phenyl-propyl)-1-piperidyl]methanone] | slightly tingling/ fizzing (2), light fruity note | slightly tingling/ fizzing (2), light fruity note | – |
| COc1ccc(C(=O)N2CCN(CCCc3ccccc3)CC2)cc1 [Compound 38, (4-Methoxy-phenyl)-[4-(3-phenylpropyl)piperazin-1-yl] methanone] | remarkably tingling/fizzing (6), numbing, Increasing effect over time | 6 | slightly mouth-watering, anesthetic |
| COc1ccc(C(=O)N2CCN(Cc3ccccc3)CC2)cc1 [Compound 40, (4-benzylpiperazin-1-yl)-(4-methoxy-phenyl)methanone] | mouth-watering, neutral, slightly tingling/ fizzing (1-2) | mouth-watering, neutral, slightly tingling/ fizzing (1-2) | – |
| CCOc1ccc(C(=O)N2CCN(CCCCc3ccccc3)CC2)cc1 [Compound 41, (4-ethoxyphenyl)-[4-(4-phenyl-butyl)piperazin-1-yl]methanone] | strong mouth- watering effect (8), long-lasting, Slightly hot | 8 | metallic, mouth- watering effect |
| CCOc1ccc(C(=O)N2CCN(C/C=C/c3ccccc3)CC2)cc1 [Compound 42, [4-[(E)-cinnamyl]piperazin-1-yl]-(4-ethoxy-phenyl)methanone] | slightly tingling (3-4), and mouth- watering, fruity, creamy, Vanilla flavor | slightly tingling (3-4), and mouth- watering, fruity, creamy, Vanilla flavor | – |
| CCOc1ccc(C(=O)N2CCN(CCc3ccccc3)CC2)cc1 [Compound 43, (4-ethoxyphenyl)-[4-(2-phenylethyl)piperazin-1-yl]methanone] | strongly bitter, metallic, tingling/fizzing (7) , and mouth-watering effect | 7 | metallic, slightly numbing, tingling/fizzing and mouth- watering effect |
| CCOc1ccc(C(=O)N2CCN(CCC3CCCCC3)CC2)cc1 [Compound 44, [4-(2-cyclo-hexylethyl)piperazin-1-yl]-(4-ethoxy-phenyl)methanone] | slightly tingling/fizzing (4), and mouth-watering | slightly tingling/fizzing (4), and mouth-watering | – |
| CCOc1ccc(C(=O)N2CCC(CCCc3ccccc3)CC2)cc1 [Compound 45, (4-ethoxyphenyl)-[4-(3-phenyl-propyl)-1-piperidyl]-methanone] | slightly tin- gling/ fizzing (2) | slightly tin- gling/ fizzing (2) | – |
| CCOc1ccc(C(=O)N2CCN(CCCc3ccccc3)CC2)cc1 [Compound 46, (4-ethoxyphenyl)-[4-(3-phenyl-propyl)piperazin-1-yl]methanone] | strong, bitter, metallic and tingling/fizzing (7), and mouth-watering effect | 7 | metallic, slightly numbing, tingling and mouth- watering effect |
| CCOc1ccc(C(=O)N2CCCN(CCc3ccccc3)CC2)cc1 [Compound 47, (4-ethoxyphenyl)-[4-(2-phenylethyl)-1,4-diazepan-1-yl]methanone] | Strong mouth-watering and tingling/fizzing effect (6), Pleasant taste | Strong mouth-watering and tingling/fizzing effect (6), Pleasant taste | – |
| CCOc1ccc(C(=O)N2CCN(Cc3ccccc3)CC2)cc1 [Compound 48, (4-benzylpiperazin-1-yl)-(4-ethoxy-phenyl)methanone] | slightly tingling/ fizzing (1-2) | slightly tingling/ fizzing (1-2) | – |
